The subject of assay [1] is type n K+ channel (human). The following applies: Table I, type n currents, human T cells; read-out: Blockers, half-blocking dose; cited from earlier work.
A further assay has as its system type n K+ channel (mice). To be noted: Table I, type n currents, mouse T cells; read-out: Blockers, half-blocking dose; cited from earlier work.
The next assay has as its target T1, MK3 K+ channels (Mus musculus, UniProt P16390).
T1 construct: The MK3 coding region was inserted into the pSP64T cloning vector; expressed in transfected cells; host or cells: Xenopus oocytes injected with MK3 mRNA (in vitro transcript from pSP64T)
The experiment in a line: cell-based.

T1 sequence (P16390 whole entry): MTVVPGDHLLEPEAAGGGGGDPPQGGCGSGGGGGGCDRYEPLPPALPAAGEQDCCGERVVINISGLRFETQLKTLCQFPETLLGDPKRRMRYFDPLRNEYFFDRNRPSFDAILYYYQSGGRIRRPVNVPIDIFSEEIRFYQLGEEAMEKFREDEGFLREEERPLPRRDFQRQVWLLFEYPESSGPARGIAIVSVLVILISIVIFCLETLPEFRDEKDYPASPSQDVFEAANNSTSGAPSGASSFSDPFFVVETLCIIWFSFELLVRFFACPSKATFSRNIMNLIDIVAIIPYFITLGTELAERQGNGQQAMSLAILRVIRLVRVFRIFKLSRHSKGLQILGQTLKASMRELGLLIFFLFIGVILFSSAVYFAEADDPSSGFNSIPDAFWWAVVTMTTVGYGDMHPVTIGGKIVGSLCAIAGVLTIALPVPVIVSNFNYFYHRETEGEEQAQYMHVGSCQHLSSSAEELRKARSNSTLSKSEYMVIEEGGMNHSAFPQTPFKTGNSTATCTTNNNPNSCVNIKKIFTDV
Protocol for MK3 K+ channels: Electrophysiology. Experiments were carried out on Xenopus oocytes with two-electrode voltage-clamp and patch-clamp techniques (17). All experiments were done at room temperature (22°-26° C.). […] The pipette solution was 3M KCl.
The patch-clamp amplifier (List L/M-EPC 7, Adams and List Associates, Ltd., Great Neck, N.Y.) was used in the voltage-clamp mode without series resistance compensation. Patch-clamp electrodes were pulled from Accu-fill 90 Micropets (Becton, Dickinson & Co., Parsippany, N.J.) in three stages, coated with Sylgard (Dow Corning Corp., Midland, Mich.) and fire-polished to resistances, measured in the bath, of 2-7M. In all patch-clamp experiments, the command input of the patch-clamp amplifier was controlled by a computer (PDP 11/73) via a digital-analog converter, and membrane currents were recorded at a band-width of 2 kHz. The holding potential was adjusted in all experiments to E=-80 mV. Correction for capacitative currents was achieved by analog subtraction. […] Due to this run-down the potency of all blockers was determined as the reduction of the mean K^+ current before and after drug treatment.
Xenopus oocytes express a high density of voltage-activated K^+ channels following injection of 70 nl of 0.01 /μg/μl MK3 mRNA. […] Outside-out patches of oocyte membrane (70 nl of 0.1 μg/μl MK3 mRNA injected) were used for measurement of gating kinetics, pharmacological sensitivity, and single channel properties.

For the compound `Nc1ccncc1` [4-AP, 4-aminopyridine], the IC50 was 190 µM in assay [1] and […] with type n K+ channel (mice).

In the case of `CC[N+](CC)(CC)CC` [TEA, tetraethylammonium], the dissociation constant (Kd) (usually the free concentration of one partner at which half of the binding sites on the other are occupied at equilibrium, for simple one-to-one binding) at MK3 K+ channels (FIG. 3C, outside-out patch, oocyte injected with MK3 mRNA, read-out: Kd, dose-response curve of drugs blocking MK3 K+ current) was found to be 11 mM. The IC50 at MK3 K+ channels (Table I, MK3 currents in oocytes, read-out: Blockers, half-blocking dose) was determined as 11 mM.

For the compound Charybdotoxin [CTX], the “Block of MK3 channels in oocytes (in words)” value at MK3 K+ channels (CTX from both sources (C. Miller and M. Garcia)) was “blocked MK3 channels in oocytes”.

Source of the values: patent US5827655A (priority 1995, dated 1998).
